# Measurements: patent publication US9107415B2, “2-(substituted-phenyl)-cyclopentane-1,3-dione compounds, and derivatives thereof” (Syngenta Limited, priority 2011, dated 2015)
# Experiments:
# Type in all cases: in vivo
# [1] = system: Spring Barley “Harrington”; test: Biological Example 4A post-emergence phytotoxicity on cereal crops; conditions: 14 DAA, EC formulation, mean of two
# Experimental: (§1) Seeds of a variety of test species are sown in standard soil in pots. After cultivation for 14 days under controlled conditions in a glasshouse (at 22/16°C., day/night; 16 hours light; 65% humidity), the plants are sprayed with the test compounds. The test plants are then grown on under controlled conditions in the glasshouse (at 22/16°C., day/night; 16 hours light; 65% humidity) and are watered twice daily. After 14 days the test is evaluated visually (100%=total damage to plant; 0%=no damage to plant). Post-emergence herbicidal activity (phytotoxicity) data, on certain grassy monocotyledonous weeds and cereal crops in a glasshouse, are measured 14 days after application of the herbicide (14 DAA), inter alia for post-emergence application rates of 30 or 60 g/ha of the test herbicide, with or without 50 g/ha of cloquintocet-mexyl safener applied at substantially the same time as the herbicide.
# (§2) Herbicidal activity (phytotoxicity) is evaluated visually, and an assessed percentage phytotoxicity score is given for each herbicidal application on each plant species (with 100%=total damage to plant; 0%=no damage to plant). Two repetitions are made for each experiment and the mean herbicidal activity (phytotoxicity) data is reported.
# (§3) Biological Example 4A is used on previously-formulated compounds, typically compounds previously formulated as an emulsifiable concentrates (EC), wherein the EC contains the herbicidal compound under test dissolved in one or more organic solvents, and wherein the EC also contains one or more surfactants or emulsifiers. In the test method, the EC containing the herbicide (plus a cloquintocet-mexyl formulation if this is also present) is generally diluted with water to form an emulsion, and the resulting emulsion is sprayed onto the emerged weed and/or crop plants.
# (§4) For the testing of Compounds A-5 and A-6, each of these compounds was separately formulated into an emulsifiable concentrate containing 10% w/w of the herbicidal compound, 9% w/w of castor oil ethoxylate (an emulsifier, present as Emulsogen™EL360), 6% w/w of calcium dodecylbenzenesulfonate (linear) (an emulsifier, present as Nansa™EVM 63B), 3% w/w of tristyrylphenol ethoxylate having 16 moles of ethoxylation per mole of molecule (an emulsifier, present as Soprophor™BSU), 10% w/w of benzyl benzoate (as solvent), 20% w/w of 1-methyl-2-pyrrolidone (as solvent), and the remainder of N-octyl-2-pyrrolidone (as solvent). The solvents and surfactants/emulsifiers were first mixed together, to form a “blank” EC, and the herbicidal compound was then added to and dissolved in this solvent and emulsifier mixture to prepare the emulsifiable concentrate, to give an EC formulation/composition containing approximately 100 g/L of active herbicidal compound.
# (§5) In the tests of Compounds A-5 and A-6, the cloquintocet-mexyl was pre-formulated as a formulation/composition containing 10% w/w cloquintocet-mexyl, 6% w/w Emulsogen™ EL360 (as emulsifier), 4% w/w Nansa™EVM 63B (as wetting agent), 1% w/w Drapex™39 (epoxidised soybean oil), 20% w/w 1-methyl-2-pyrrolidone (as solvent), and the remainder as Solvesso™200ND (a mixture of heavy aromatic hydrocarbons, as a solvent).
# Winter Barley “Suzuka” = test: as above; conditions: 14 DAA, EC formulation, mean of two
# Experimental: as §1, §2, §3, §4, §5
# Winter Wheat “Hereward” = test: as above; conditions: 14 DAA, EC formulation, mean of two
# Experimental: as §1, §2, §3, §4, §5
# Spring Wheat “Teal” = test: as above; conditions: 14 DAA, EC formulation, mean of two
# Experimental: as §1, §2, §3, §4, §5
# Avena fatua (AVEFA) [2] = test: Biological Example 1 glasshouse screen, post-emergence herbicidal activity; conditions: 312 h, application rate 250 g/ha, evaluated after 13 days, read-out: AVEFA percentage phytotoxicity
# Method in brief: (§6)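 Pots in a glasshouse (24/16°C day/night, 14 h light, 65% humidity) were sprayed one day after sowing (pre-emergence) or after 8 days (post-emergence), using acetone/water (50:50) with 0.5% Tween 20. Phytotoxicity was scored visually as % damage (0-100) 13 days after application.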
# Lolium perenne (LOLPE) = test: as above; conditions: 312 h, application rate 250 g/ha, evaluated after 13 days, read-out: LOLPE percentage phytotoxicity
# Method in brief: as §6
# [3] = system: Lolium multiflorum (LOLMU); test: Biological Example 4A (previously-formulated compounds) post-emergence herbicidal activity on grassy weeds; conditions: 14 DAA, EC formulation, mean of two
# Experimental: as §1, §2, §3, §4, §5
# (§7) Test plants: Avena fatua (AVEFA), Lolium multiflorum (LOLMU), Setaria viridis (SETVI), Poa annua (POAAN), Alopecurus myosuroides (ALOMY). All five of these are grassy monocotyledonous weeds.
# Poa annua (POAAN) = test: as above; conditions: 14 DAA, EC formulation, mean of two
# Experimental: as §1, §2, §3, §4, §5, §7
# Avena fatua (AVEFA) [4] = test: as above; conditions: 14 DAA, EC formulation, mean of two
# Experimental: as §1, §2, §3, §4, §5, §7
# [5] = system: Alopecurus myosuroides (ALOMY); test: as above; conditions: 14 DAA, EC formulation, mean of two
# Experimental: as §1, §2, §3, §4, §5, §7
# Setaria viridis (SETVI) = test: as above; conditions: 14 DAA, EC formulation, mean of two
# Experimental: as §1, §2, §3, §4, §5, §7
# [6] = system: Echinochloa crus-galli (ECHCG); test: Biological Example 1 glasshouse screen, post-emergence herbicidal activity; conditions: 312 h, application rate 250 g/ha, evaluated after 13 days, read-out: ECHCG percentage phytotoxicity
# Method in brief: (§8)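 Seeds sown in standard soil in pots were sprayed 1 day (pre-emergence) or 8 days (post-emergence) after sowing with technical active ingredient in acetone/water (50:50) containing 0.5% Tween 20. Plants grown at 24/16°C day/night, 14 h light, 65% humidity. Visual % phytotoxicity scored after 13 days (100% = total damage).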
# [7] = system: Alopecurus myosuroides (ALOMY); test: as above; conditions: 312 h, application rate 250 g/ha, evaluated after 13 days, read-out: ALOMY percentage phytotoxicity
# Method in brief: as §8
# [8] = 30 g/ha, cloquintocet-mexyl 0 g/ha
# [9] = 30 g/ha, cloquintocet-mexyl 50 g/ha
# [10] = 60 g/ha, cloquintocet-mexyl 0 g/ha
# [11] = 60 g/ha, cloquintocet-mexyl 50 g/ha
smiles,measurement,setting,value
CC#Cc1cc(C)c(C2=C(O)C[C@H](Cc3ccccn3)C2=O)c(C)c1 [Compound A-5],Spring Barley “Harrington” phytotoxicity (%),[1]; [8],73%
same,Spring Barley “Harrington” phytotoxicity (%),[1]; [9],3%
same,Spring Barley “Harrington” phytotoxicity (%),[1]; [10],88%
same,Spring Barley “Harrington” phytotoxicity (%),[1]; [11],18%
same,Winter Barley “Suzuka” phytotoxicity (%),Winter Barley “Suzuka”; [8],33%
same,Winter Barley “Suzuka” phytotoxicity (%),Winter Barley “Suzuka”; [9],0%
same,Winter Barley “Suzuka” phytotoxicity (%),Winter Barley “Suzuka”; [10],65%
same,Winter Barley “Suzuka” phytotoxicity (%),Winter Barley “Suzuka”; [11],0%
same,Winter Wheat “Hereward” phytotoxicity (%),Winter Wheat “Hereward”; [8],40%
same,Winter Wheat “Hereward” phytotoxicity (%),Winter Wheat “Hereward”; [9],0%
same,Winter Wheat “Hereward” phytotoxicity (%),Winter Wheat “Hereward”; [10],53%
same,Winter Wheat “Hereward” phytotoxicity (%),Winter Wheat “Hereward”; [11],0%
same,Spring Wheat “Teal” phytotoxicity (%),Spring Wheat “Teal”; [8],43%
same,Spring Wheat “Teal” phytotoxicity (%),Spring Wheat “Teal”; [9],0%
same,Spring Wheat “Teal” phytotoxicity (%),Spring Wheat “Teal”; [10],80%
same,Spring Wheat “Teal” phytotoxicity (%),Spring Wheat “Teal”; [11],0%
same,pest or weed control at 250 g/ha,Avena fatua (AVEFA) [2],90%
same,pest or weed control at 250 g/ha,Lolium perenne (LOLPE),80%
same,LOLMU % phytotoxicity,[3]; [8],93%
same,LOLMU % phytotoxicity,[3]; [9],68%
same,LOLMU % phytotoxicity,[3]; [10],95%
same,LOLMU % phytotoxicity,[3]; [11],99%
same,POAAN % phytotoxicity,Poa annua (POAAN); [8],0%
same,POAAN % phytotoxicity,Poa annua (POAAN); [9],13%
same,POAAN % phytotoxicity,Poa annua (POAAN); [10],18%
same,POAAN % phytotoxicity,Poa annua (POAAN); [11],5%
same,AVEFA % phytotoxicity,Avena fatua (AVEFA) [4]; [8],58%
same,AVEFA % phytotoxicity,Avena fatua (AVEFA) [4]; [9],23%
same,AVEFA % phytotoxicity,Avena fatua (AVEFA) [4]; [10],83%
same,AVEFA % phytotoxicity,Avena fatua (AVEFA) [4]; [11],68%
same,ALOMY % phytotoxicity,[5]; [8],58%
same,ALOMY % phytotoxicity,[5]; [9],63%
same,ALOMY % phytotoxicity,[5]; [10],93%
same,ALOMY % phytotoxicity,[5]; [11],98%
same,SETVI % phytotoxicity,Setaria viridis (SETVI); [8],80%
same,SETVI % phytotoxicity,Setaria viridis (SETVI); [9],85%
same,SETVI % phytotoxicity,Setaria viridis (SETVI); [10],98%
same,SETVI % phytotoxicity,Setaria viridis (SETVI); [11],95%
same,pest or weed control at 250 g/ha,[6],90%
same,pest or weed control at 250 g/ha,[7],80%
